Measurements published in US20030104975A1, “Cofactor-based screening method for nuclear receptor modulators and related modulators” (priority 2001, published 2003).

Legend:
BDGal4-hPPARγ DE / TIF2 = biological target: T1, BDGal4-hPPARγ DE / TIF2 (Homo sapiens, UniProt P37231); test: Mammalian two-hybrid assay in RK13 cells, Gal4-hPPARγ DE with TIF2; type: cell-based; conditions: 24 h, FMOC-L-Leu 10^-5M, rosiglitazone 10^-7M
T1 construct: expressed in transfected cells; host or cells: RK13 cells (ATCC)
T1 sequence (P37231 238-503 limits assumed): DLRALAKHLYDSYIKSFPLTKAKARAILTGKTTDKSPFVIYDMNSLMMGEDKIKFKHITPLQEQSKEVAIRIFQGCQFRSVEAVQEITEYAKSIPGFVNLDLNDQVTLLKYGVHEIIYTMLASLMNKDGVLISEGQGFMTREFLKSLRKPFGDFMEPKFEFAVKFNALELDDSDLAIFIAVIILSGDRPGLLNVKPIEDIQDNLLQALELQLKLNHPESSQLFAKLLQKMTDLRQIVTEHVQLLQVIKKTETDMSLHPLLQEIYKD
Description: (§1) FIG. 2: Interactions between PPAR-gamma and cofactors in cultured mammalian cells. Mammalian two-hybrid interaction between PPAR-gamma and the various co-activators in RK13 cells co-transfected with an expression vector for BDGal4-hPPARγ DE, pGL3-(Gal4)5TKLuc reporter construct, pCMV-βGal, as a control of transfection efficiency, and different expression vectors for different cofactors. Cells were grown during 24 h in the presence or absence of the indicated compound. Luciferase activity has been normalized. […] Each point was performed in triplicate. Bars not sharing similar superscripts are statistically different from each other (P<0.05, Fisher's Post-hoc analysis of 2×2 ANOVA with ligands and constructs as factors).
(§2) RK-13 cells were obtained from ATCC (Rockville, Md.). Cells were maintained in Dulbecco's modified Eagle's minimal essential medium (DMEM) supplemented with 10% fetal calf serum (FCS), L-glutamine, and antibiotics. Transfection studies with luciferase (luc.) reporter constructs were carried out as described previously (Oberfield et al., 1999, Proc Natl. Acad Sci USA 96, 6102-6106). The pGL3-(Gal4)5TKLuc reporter constructs are described elsewhere (Gelman et al., 1999, J. Biol. Chem. 274, 7681-7688). […]

PPARγ DE / p300Nt-GST = biological target: T2, PPARγ DE / p300Nt-GST (Homo sapiens, UniProt P37231); test: GST pull-down assay, PPARγ DE with p300Nt-GST; type: binding; conditions: anti-histidine blot, rosiglitazone 10^-4 M, FMOC-L-Leu 10^-3 M, compared to DMSO
T2 construct: made in house; host or cells: E. coli BL21 (DE3) for PPARgamma, pET15b; E. coli for the GST fusion, pGex4-T1
T2 sequence (Q09472 2-516 partner limits assumed, one chain of several): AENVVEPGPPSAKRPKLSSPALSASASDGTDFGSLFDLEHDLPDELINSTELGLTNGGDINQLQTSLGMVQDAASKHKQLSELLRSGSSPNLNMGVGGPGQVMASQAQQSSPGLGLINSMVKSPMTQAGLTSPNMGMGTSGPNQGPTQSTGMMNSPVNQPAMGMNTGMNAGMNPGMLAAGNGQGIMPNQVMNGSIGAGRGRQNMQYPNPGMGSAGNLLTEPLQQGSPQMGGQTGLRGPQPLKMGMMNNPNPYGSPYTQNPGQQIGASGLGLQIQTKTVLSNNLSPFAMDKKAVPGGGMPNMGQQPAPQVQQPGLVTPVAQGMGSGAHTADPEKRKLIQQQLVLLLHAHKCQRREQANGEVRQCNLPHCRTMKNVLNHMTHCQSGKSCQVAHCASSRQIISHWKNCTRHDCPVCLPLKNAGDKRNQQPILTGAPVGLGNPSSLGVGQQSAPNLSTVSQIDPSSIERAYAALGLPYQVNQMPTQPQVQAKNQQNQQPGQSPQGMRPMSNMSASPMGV
From the text: (§3) The beads were then washed and the samples separated on SDS-PAGE. Blots were developed with anti-histidine antibodies.
(§4) Production of proteins. The p300Nt-GST, SRC-1-GST and TIF2-GST fusion proteins were generated by cloning the N-terminal part of the cDNA coding for the p300 protein (amino acids 2 to 516), the region comprised between amino acids 568 and 780 of SRC-1 (SEQ ID NO: 03), and the domain between amino acids 618 and 826 of TIF2 (SEQ ID NO: 01), respectively, downstream of the glutathione-S-transferase (GST) protein in the pGex4-T1 vector (Pharmacia, Orsay, France). The fusion proteins were then expressed in E. coli and purified on a glutathione affinity matrix (Pharmacia). 6×-histidine-tagged human PPAR-gamma LBD (residues 203-477 of SEQ ID NO: 06) was overproduced in E. coli BL21 (DE3) using the pET15b as an expression plasmid (Novagen, Madison, Wis.) and purified by metal ion affinity chromatography on a Co^2+-loaded HiTrap Chelating column (Pharmacia Biotech, Peapack, N.J.) followed by gel filtration chromatography on a HiLoad Supcrdex 100 column (Pharmacia). The protein concentration was determined by the Bradford method (1976, Anal Biochem 72, 248-254).
(§5) Pull-down experiments. […] The beads were then washed 4 times with pull-down buffer and boiled in 4×-sample buffer. The samples were separated by 12% acrylamide SDS-PAGE and transferred to nitrocellulose membranes.

3T3-L1 cells = test: 3T3-L1 adipocyte differentiation assay; type: cell-based, murine; conditions: FMOC-L-Leu 10^-5 M
Description: A: Expression of adipocyte markers during differentiation of 3T3-L1 cells treated with different PPAR-gamma agonists. Confluent 3T3-L1 cells were incubated with 2 μM insulin, 1 μM dexamethasone, and 0.25 mM isobuthyl methyl xanthine for two days. […] RNA was isolated from 3T3-L1 cells after different times of differentiation induction. Blots were hybridized with DNA probes that specifically bind to 36B4 (to control for RNA loading), lipoprotein lipase (LPL), or aP2.
Cells were stained with Oil Red O after 6 days of treatment.
3T3-L1 cells (ATCC, Rockville, Md.) were grown to confluence in medium A (Dulbecco's modified Eagle's Medium with 10% fetal calf serum, 100 units/ml penicillin, and 100 μg/ml streptomycin). Confluent cell were incubated in medium A containing 2 μM insulin, 1 μM dexamethasone, and 0.25 mM isobuthyl methyl xanthine for two days. Then, the cells were incubated in medium A in presence or absence of PPARγ agonist for 4 days, changing the medium every 2 days. Adipogenesis was evaluated by analysis of the expression of adipocyte-specific markers and by staining of lipids with Oil Red O (Chawla & Lazar, 1994, Proc. Natl. Acad. Sci. USA 91, 1786-1790).
RNA was isolated from 3T3-L1 cells by the acid guanidinium thiocyanate/phenol/chloroform method (Chomczynski & Sacchi, 1987, Anal. Biochem. 162, 156-159). Northern blot analysis of total cellular RNA was performed as described (Auwerx et al., 1989, Mol. Cell. Biol. 9, 2298-2302). Lipoprotein lipase (LPL), aP2 and 36B4 were used as probes (Lefebvre et al., 1997, Arterioscler.Thromb.Vasc.Biol. 17, 1756-1764; Laborda, 1991, Nucl. Acids Res. 19, 3998; Graves et al., 1992, Mol. Cell. Biol 12, 1202-1208).

PPARγ DE / TIF2-GST = biological target: T3, PPARγ DE / TIF2-GST (Homo sapiens, UniProt P37231); test: GST pull-down assay, PPARγ DE with TIF2-GST; type: binding; conditions: anti-histidine blot, rosiglitazone 10^-4 M, FMOC-L-Leu 10^-3 M, compared to DMSO
T3 construct: made in house; host or cells: E. coli BL21 (DE3) for PPARgamma, pET15b; E. coli for the GST fusion, pGex4-T1
T3 sequence (P37231 203-477 isoform P37231-2): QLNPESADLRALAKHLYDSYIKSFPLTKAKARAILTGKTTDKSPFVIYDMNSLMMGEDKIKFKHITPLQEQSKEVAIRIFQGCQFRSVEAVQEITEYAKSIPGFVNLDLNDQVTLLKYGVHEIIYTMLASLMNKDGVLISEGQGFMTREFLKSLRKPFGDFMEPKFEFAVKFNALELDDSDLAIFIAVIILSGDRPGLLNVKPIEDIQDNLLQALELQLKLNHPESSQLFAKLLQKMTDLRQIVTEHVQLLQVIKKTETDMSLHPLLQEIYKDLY
From the text: as §3, §4, §5

BDGal4-hPPARγ DE / p300 = biological target: T4, BDGal4-hPPARγ DE / p300 (Homo sapiens, UniProt P37231); test: Mammalian two-hybrid assay in RK13 cells, Gal4-hPPARγ DE with p300; type: cell-based; conditions: 24 h, FMOC-L-Leu 10^-5M
T4 construct: expressed in transfected cells; host or cells: RK13 cells (ATCC)
T4 sequence (P37231 238-503 limits assumed): T1 sequence (P37231 238-503 limits assumed)
Description: as §1, §2

[1] = biological target: T5, PPARγ DE/SRC-1-GST complexes (Homo sapiens, UniProt P37231); conditions: GST pull-down, anti-histidine blot; rosiglitazone 10^-4 M, FMOC-L-Leu 10^-3 M; compared to DMSO
T5 sequence (P37231 203-477 isoform P37231-2): T3 sequence (P37231 203-477 isoform P37231-2)
From the text: as §3, §4, §5

BDGal4-hPPARγ DE / SRC-1 = biological target: T6, BDGal4-hPPARγ DE / SRC-1 (Homo sapiens, UniProt P37231); test: Mammalian two-hybrid assay in RK13 cells, Gal4-hPPARγ DE with SRC-1; type: cell-based; conditions: 24 h, FMOC-L-Leu 10^-5M
T6 construct: expressed in transfected cells; host or cells: RK13 cells (ATCC)
T6 sequence (Q15788 whole entry partner, one chain of several, the tested form may be a part): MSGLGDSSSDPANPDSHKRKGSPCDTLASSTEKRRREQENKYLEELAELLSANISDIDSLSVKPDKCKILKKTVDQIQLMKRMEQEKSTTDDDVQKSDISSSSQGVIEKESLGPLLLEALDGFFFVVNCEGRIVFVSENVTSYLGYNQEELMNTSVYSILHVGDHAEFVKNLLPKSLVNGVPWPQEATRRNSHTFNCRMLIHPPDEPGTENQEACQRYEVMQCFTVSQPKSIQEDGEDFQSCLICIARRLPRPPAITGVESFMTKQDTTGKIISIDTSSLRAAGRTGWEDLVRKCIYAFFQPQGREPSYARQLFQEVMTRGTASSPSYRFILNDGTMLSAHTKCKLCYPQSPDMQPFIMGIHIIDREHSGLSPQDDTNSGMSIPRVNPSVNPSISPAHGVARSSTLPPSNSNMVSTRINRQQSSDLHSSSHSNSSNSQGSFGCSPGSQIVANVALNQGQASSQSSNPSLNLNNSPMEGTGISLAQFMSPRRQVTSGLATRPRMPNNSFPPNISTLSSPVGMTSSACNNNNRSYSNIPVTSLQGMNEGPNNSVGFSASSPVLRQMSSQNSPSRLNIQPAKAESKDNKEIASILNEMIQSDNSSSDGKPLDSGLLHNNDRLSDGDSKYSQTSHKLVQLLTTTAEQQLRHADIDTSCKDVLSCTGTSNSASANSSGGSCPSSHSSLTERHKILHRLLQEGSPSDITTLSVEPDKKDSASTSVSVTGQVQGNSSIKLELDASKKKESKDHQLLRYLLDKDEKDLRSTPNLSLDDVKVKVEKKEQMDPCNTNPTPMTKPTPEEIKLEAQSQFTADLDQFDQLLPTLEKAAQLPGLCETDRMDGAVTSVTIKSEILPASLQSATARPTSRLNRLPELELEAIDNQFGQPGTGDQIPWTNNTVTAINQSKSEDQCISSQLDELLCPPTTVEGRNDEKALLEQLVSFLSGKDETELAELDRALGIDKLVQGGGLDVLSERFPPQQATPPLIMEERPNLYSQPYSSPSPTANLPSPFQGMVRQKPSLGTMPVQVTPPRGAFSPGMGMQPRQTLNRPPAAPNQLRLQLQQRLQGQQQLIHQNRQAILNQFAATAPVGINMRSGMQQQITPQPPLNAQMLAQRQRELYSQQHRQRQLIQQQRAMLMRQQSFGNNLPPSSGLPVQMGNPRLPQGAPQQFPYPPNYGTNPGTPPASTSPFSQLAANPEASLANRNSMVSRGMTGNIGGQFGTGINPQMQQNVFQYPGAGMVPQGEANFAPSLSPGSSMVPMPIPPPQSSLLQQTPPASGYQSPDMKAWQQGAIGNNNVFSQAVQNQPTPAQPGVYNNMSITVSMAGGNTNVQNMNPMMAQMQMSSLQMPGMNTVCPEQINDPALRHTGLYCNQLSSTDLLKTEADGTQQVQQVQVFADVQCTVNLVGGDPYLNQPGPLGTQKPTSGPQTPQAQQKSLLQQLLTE
Description: as §1, §2

[2] = Northern blot, extent close to rosiglitazone 10^-7 M

interaction between the PPARγ DE and p300Nt-GST (PPARγ DE / p300Nt-GST): increased the interaction | interaction between TIF2 and the PPARγ DE (PPARγ DE / TIF2-GST): not with FMOC-L-Leu | formation of PPARγ DE/SRC-1-GST complexes [1]: induced the formation
SMILES: CC(C)C[C@H](NC(=O)OCC1c2ccccc2-c2ccccc21)C(=O)O [FMOC-L-Leu, FMOC-L-leucine]
transactivation (luciferase) in the presence of TIF2 (BDGal4-hPPARγ DE / TIF2): no significant increase in transactivation | neutral lipid accumulation (Oil Red O staining) (3T3-L1 cells; 6 day incubation, rosiglitazone 10^-7 M): capable of inducing neutral lipid accumulation | LPL mRNA levels (3T3-L1 cells; [2]): significantly stimulated | aP2 mRNA levels (3T3-L1 cells; [2]): significantly stimulated | transactivation (luciferase) in the presence of p300 (BDGal4-hPPARγ DE / p300): no significant increase in transactivation | transactivation (luciferase) in the presence of SRC-1 (BDGal4-hPPARγ DE / SRC-1): much more pronounced and significant induction
